Patent US20240270748A1 (Merck Patent GmbH, priority 2021, published 2024)

How the values were obtained:
[1] = system: YAP-TEAD interaction; assay: SK-HEP-1 reporter assay (8xTEAD responsive elements driving NanoLuc luciferase); assay type: cell-based
Outline: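 SK-HEP-1 cells stably carrying 8×TEAD-driven NanoLuc treated in duplicate, 10-point dose from 30 μM final, 0.3% DMSO, 24 h at 37° C. Luminescence after NanoGlo lysis/substrate addition; IC50 calculated from dose response.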

[2] = system: SW620 Yap KO cells; assay: Viability assay in SW620 Yap KO (Yap independent) cells, CyQuant; assay type: cell-based; conditions: n.d. = value not detectable below threshold given in parentheses
Outline: (§1)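 Seeded cells were dosed 24 h later in duplicate (10-point, 1:3 dilutions, top 30 μM final, 0.3% DMSO) and incubated 96 h at 37 °C. Viability was read with CyQUANT DNA dye after 1 h, fluorescence bottom read. NCI-H226 in RPMI 1640 medium; SW620 YAP/TAZ CRISPR knockout in DMEM/F-12 medium.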

[3] = system: NCI-H226 cells; assay: Viability assay in NCI-H226 (Yap-dependent) cells, CyQuant; assay type: cell-based, human; conditions: class symbols
Outline: as §1

[4] = Homo sapiens, SK-HEP1, SK-HEP-1 reporter assay, class symbols
[5] = Homo sapiens, SW-620, 96 h, ND = not determinable within the entire range
[6] = Homo sapiens, SK-HEP1, SK-HEP-1 reporter assay, n.d. = value not detectable below threshold given in parentheses
[7] = SK-HEP-1 reporter assay, class symbols

Compound | IC50 [1, 4] [µM] | IC50 ([2]; Homo sapiens, SW-620, 96 h) [µM] | IC50 ([3]; Homo sapiens, NCI-H226, 96 h) [µM] | IC50 [2, 5] [µM] | IC50 [1, 6] [µM] | IC50 ([3]; 96 h) [µM] | IC50 [1, 7] [µM] | IC50 ([2]; 96 h, ND = not determinable within the entire range) [µM]
Cn1cc2c3cc(C(=O)NC(CO)c4ccccn4)ccc3n(-c3ccc(C(F)(F)F)nc3)c2n1 (single isomer, unassigned) [Example C123] | 0.1 to 10 |  |  | > 30 |  | 0.1 to 1 |  | 
Cn1cc2c3cc(C(=O)NCc4ccncc4)ccc3n(C3CC4(C3)CC(F)(F)C4)c2n1 [Example C208, 8-{6,6-difluorospiro[3.3]heptan-2-yl}-2-methyl-N-[(pyridin-4-yl)methyl]-2H,8H-pyrazolo [3,4-b]indole-5-carboxamide] | 0.01 to 0.1 | > 30 | 0.1 to 1 |  |  |  |  | 
Cn1cc2c3cc(C(=O)N=S(C)(C)=O)ccc3n(-c3ccc(C(F)(F)F)c(F)c3)c2n1 [Example C168, N-[dimethyl(oxo)-lambda6-sulfanylidene]-8-[3-fluoro-4-(trifluoromethyl)phenyl]-2-methyl-2H,8H-pyrazolo[3,4-b]indole-5-carboxamide] | 0.01 to 0.1 | > 3.2 | 0.001 to 0.1 |  |  |  |  | 
Cc1c2c3cc(C(=O)N[C@H](C)CO)ccc3n(-c3ccc(C(F)(F)F)cc3)c2nn1C [Example C97, N-[(2R)-1-hydroxypropan-2-yl]-2,3-dimethyl-8-[4-(trifluoromethyl)phenyl]-2H,8H-pyrazolo[3,4-b]indole-5-carboxamide] | 0.01 to 0.1 |  | 0.001 to 0.1 | > 30 |  |  |  | 
COCCC(CO)NC(=O)c1ccc2c(c1)c1cn(C)nc1n2-c1ccc(C(F)(F)F)cc1 (single isomer, unassigned) [Example C245] |  | > 30 | 0.001 to 0.1 |  |  |  | 0.01 to 0.1 | 
Cc1cc(C(CO)NC(=O)c2ccc3c(c2)c2cn(C)nc2n3-c2ccc(C(F)(F)F)cc2)ccn1 (stereo not drawn) [Example C219, N-[2-hydroxy-1-(2-methylpyridin-4-yl)ethyl]-2-methyl-8-[4-(trifluoromethyl)phenyl]-2H,8H-pyrazolo[3,4-b]indole-5-carboxamide] | 0.01 to 0.1 | > 3 | 0.1 to 1 |  |  |  |  | 
Cn1nc2c3cc(C(=O)N=[S@@](=O)(CCCO)Cc4cccnc4)ccc3n(-c3ccc(C(F)(F)F)cc3)c2n1 (single isomer, unassigned) [Example C200] |  | > 3 | 0.1 to 1 |  | > 9.5 |  |  | 
Cn1nc2c3cc(C(=O)N=[S@@](=O)(CCCO)Cc4ccccn4)ccc3n(-c3ccc(C(F)(F)F)cc3)c2n1 (single isomer, unassigned) [Example C237] |  | > 3 | 0.001 to 0.1 |  | > 3 |  |  | 
Cn1nc2c3cc(C(=O)N[C@@H](CO)C(F)(F)F)ccc3n(-c3ccc(C(F)(F)F)cc3)c2n1 [Example C86, 2-methyl-N-[(2S)-1,1,1-trifluoro-3-hydroxypropan-2-yl]-4-[4-(trifluoromethyl)phenyl]-2H,4H-[1,2,3]triazolo [4,5-b]indole-7-carboxamide] | 0.01 to 0.1 |  | 0.001 to 0.1 | > 30 |  |  |  | 
CC(NC(=O)c1ccc2c(c1)c1cn(C)nc1n2-c1ccc(C(F)(F)F)cc1)c1ccn[nH]1 (single isomer, unassigned) [Example C76] |  |  |  |  |  | 0.001 to 0.1 | 0.1 to 10 | > 3.2
Cn1cc2c3cc(C(=O)N=S(C)(=O)CCO)ccc3n(-c3ccc(C(F)(F)F)cc3)c2n1 (single isomer, unassigned) [Example C73] | 0.1 to 10 |  | 0.001 to 0.1 | > 30 |  |  |  | 
Cn1cc2c3cc(S(=O)(=O)NCCO)ccc3n(-c3ccc(C(F)(F)F)cc3)c2n1 [Example C57, N-(2-hydroxyethyl)-2-methyl-8-[4-(trifluoromethyl)phenyl]-2H,8H-pyrazolo[3,4-b]indole-5-sulfonamide] | 0.01 to 0.1 |  | 1 to 10 | > 30 |  |  |  | 
Cn1cc2c3cc(C(=O)N[C@@H](CCO)c4ccccn4)ccc3n(-c3ccc(C(F)(F)F)cc3)c2n1 (single isomer, unassigned) [Example C240] | 0.01 to 0.1 | > 3 | 0.001 to 0.1 |  |  |  |  | 
CC[C@@H](CO)NC(=O)c1ccc2c(c1)c1c(C)snc1n2-c1ccc(C(F)(F)F)cc1 [Example C83, N-[(2S)-1-hydroxybutan-2-yl]-3-methyl-8-[4-(trifluoromethyl)phenyl]-8H-[1,2]thiazolo [3,4-b]indole-5-carboxamide] | 0.01 to 0.1 |  | 0.001 to 0.1 | > 30 |  |  |  | 
C[C@H](NC(=O)c1ccc2c(c1)c1nn(C)nc1n2-c1ccc(C(F)(F)F)cc1)c1ccncc1 [Example C185, 2-methyl-N-[(1S)-1-(pyridin-4-yl)ethyl]-4-[4-(trifluoromethyl)phenyl]-2H,4H-[1,2,3]triazolo[4,5-b]indole-7-carboxamide] | 0.01 to 0.1 | > 3 | 0.001 to 0.1 |  |  |  |  | 
Cc1c2c3cc(C(=O)NCc4ccncc4)ccc3n(-c3ccc(C(F)(F)F)cc3)c2nn1C [Example C98, 2,3-dimethyl-N-[(pyridin-4-yl)methyl]-8-[4-(trifluoromethyl)phenyl]-2H,8H-pyrazolo[3,4-b]indole-5-carboxamide] | 0.01 to 0.1 |  | 0.001 to 0.1 | > 3.2 |  |  |  | 
Cn1nc2c3cc(C(=O)N=[S@@](C)(=O)CCO)ccc3n(-c3ccc(C(F)(F)F)cc3)c2n1 (single isomer, unassigned) [Example C191] | 0.01 to 0.1 | > 30 | 0.001 to 0.1 |  |  |  |  | 
Cc1snc2c1c1cc(C(=O)NC[C@H](C)O)ccc1n2-c1ccc(C(F)(F)F)cc1 [Example C94, N-[(2S)-2-hydroxypropyl]-3-methyl-8-[4-(trifluoromethyl)phenyl]-8H-[1,2]thiazolo[3,4-b]indole-5-carboxamide] | 0.01 to 0.1 |  | 0.001 to 0.1 | > 30 |  |  |  | 
C[C@H](CO)NC(=O)c1ccc2c(c1)c1cn(C)nc1n2-c1ccc(C(F)F)cc1 [Example C247, 8-[4-(difluoromethyl)phenyl]-N-[(2R)-1-hydroxypropan-2-yl]-2-methyl-2H,8H-pyrazolo[3,4-b]indole-5-carboxamide] | 0.01 to 0.1 | > 30 | 0.001 to 0.1 |  |  |  |  | 

The next lines start with the values.

IC50 [1, 4] [µM] | IC50 ([2]; Homo sapiens, SW-620, 96 h) [µM] | IC50 ([3]; Homo sapiens, NCI-H226, 96 h) [µM] | IC50 [2, 5] [µM] | IC50 [1, 6] [µM] | IC50 ([3]; 96 h) [µM] | IC50 [1, 7] [µM] | IC50 ([2]; 96 h, ND = not determinable within the entire range) [µM] | Compound
0.01 to 0.1 | > 30 | 0.001 to 0.1 |  |  |  |  |  | Cn1nc2c3cc(C(=O)N=[S@@](C)(=O)CCCO)ccc3n(-c3ccc(C(F)(F)F)cc3)c2n1 (single isomer, unassigned) [Example C173]
0.01 to 0.1 |  | 0.001 to 0.1 | > 30 |  |  |  |  | Cn1nc2c3cc(C(=O)N=S(C)(=O)CCO)ccc3n(-c3ccc(C(F)(F)F)cc3)c2n1 (stereo not drawn) [Example C31, N-[(2-hydroxyethyl)(methyl)oxo-A6-sulfanylidene]-2-methyl-4-[4-(trifluoromethyl)phenyl]-2H,4H-[1,2,3]triazolo[4,5-b]indole-7-carboxamide]
 | > 3 | 0.001 to 0.1 |  | > 9.5 |  |  |  | Cn1cc2c3cc(C(=O)N=[S@](=O)(CCO)Cc4ccccn4)ccc3n(-c3ccc(C(F)(F)F)cc3)c2n1 (single isomer, unassigned) [Example C175]
0.01 to 0.1 | > 30 | 0.001 to 0.1 |  |  |  |  |  | Cn1ccc(C(CO)NC(=O)c2ccc3c(c2)c2cn(C)nc2n3-c2ccc(C(F)(F)F)cc2)n1 (stereo not drawn) [Example C260, N-[2-hydroxy-1-(1-methyl-1H-pyrazol-3-yl)ethyl]-2-methyl-8-[4-(trifluoromethyl)phenyl]-2H,8H-pyrazolo[3,4-b]indole-5-carboxamide]
0.01 to 0.1 |  | 0.001 to 0.1 | > 30 |  |  |  |  | Cn1cc2c3cc(C(=O)N=[S@@](C)(=O)CCO)ccc3n(-c3ccc(C(F)(F)F)cc3)c2n1 (single isomer, unassigned) [Example C74]
0.01 to 0.1 |  | 0.001 to 0.1 | > 3 |  |  |  |  | Cn1nc2c3cc(C(=O)NC[C@H](O)C(F)(F)F)ccc3n(-c3ccc(C(F)(F)F)cc3)c2n1 [Example C159, 2-methyl-N-[(2S)-3,3,3-trifluoro-2-hydroxypropyl]-4-[4-(trifluoromethyl)phenyl]-2H,4H-[1,2,3]triazolo[4,5-b]indole-7-carboxamide]
0.001 to 0.01 |  | 0.001 to 0.1 | > 3 |  |  |  |  | Cn1cnc2c1c1cc(C(=O)N[C@@](C)(CO)c3ccccn3)ccc1n2-c1ccc(C(F)(F)F)cc1 [Example C12, N-[(2R)-1-hydroxy-2-(pyridin-2-yl)propan-2-yl]-1-methyl-4-[4-(trifluoromethyl)phenyl]-1H,4H-imidazo [4,5-b]indole-7-carboxamide]
0.01 to 0.1 |  | 0.001 to 0.1 | > 3.2 |  |  |  |  | Cc1snc2c1c1cc(C(=O)N=S(C)(=O)CCO)ccc1n2-c1ccc(C(F)(F)F)cc1 (single isomer, unassigned) [Example C101]
0.01 to 0.1 |  | 0.001 to 0.1 | > 30 |  |  |  |  | Cn1cnc2c1c1cc(C(=O)N[C@](C)(CO)c3ccccn3)ccc1n2-c1ccc(C(F)(F)F)cc1 [Example C2, N-[(2S)-1-hydroxy-2-(pyridin-2-yl)propan-2-yl]-1-methyl-4-[4-(trifluoromethyl)phenyl]-1H,4H-imidazo [4,5-b]indole-7-carboxamide]
0.01 to 0.1 |  | 0.001 to 0.1 | > 3 |  |  |  |  | Cc1snc2c1c1cc(C(=O)N=S(C)(=O)CCCO)ccc1n2-c1ccc(C(F)(F)F)cc1 (stereo not drawn) [Example C16, N-[(3-hydroxypropyl)(methyl) οχο-λ6-sulfanylidene]-3-methyl-8-[4-(trifluoromethyl)phenyl]-8H-[1,2]thiazolo[3,4-b]indole-5-carboxamide]
